Test results published in patent US20060182775A1, “Insect repellent” (priority 2005, published 2006).

Experiments:
[1] = cited from earlier work
[2] = human, in vivo

Compound: CCN(CC)C(=O)c1cccc(C)c1 [DEET, n,n-diethyl-m-toluamide]
- absorption through the skin ([1]; in vivo): readily absorbed through the skin and enters into the blood stream
- effect on the nervous system ([1]; in vivo): adversely affect the nervous system
- seizures and death ([1]; some individuals): caused seizures and even death in some individuals

Compound: citronella oil
- burning and/or irritation of skin [2]: caused burning and/or irritation
